From the Deep4Chem optical property database
Values belong to the compound of their own block, whether it stands above or below them.

Experiment: solvent given as SMILES

absorption maximum (in ClC(Cl)Cl): 411 nm
SMILES: Cc1ccc(C2CC(=O)Oc3c2c2nc4ccc(C)cc4nc2c2ccccc32)cc1 (stereo not given)

SMILES: CCC1=[N+]2c3c(c4ccc(Oc5c(C)cc(C)cc5C)c5cc6c(Oc7c(C)cc(C)cc7C)ccc7c8cc(CC)n(c8c3c(c54)c67)[B-]2(F)F)=C1
absorption maximum (in Cc1ccccc1): 867 nm

absorption maximum (in ClCCl): 324 nm
SMILES: COC(=O)c1c(-c2cc3ccccc3oc2=O)nn(-c2cccc(C)c2)c1C(=O)OC

absorption maximum (in ClCCl): 311 nm
SMILES: COC(=O)C1=C(C(=O)OC)C2(c3ccccc3-c3ccccc32)[C@@H](c2ccc(C)cc2)C=C2c3cc(OC)c(OC)cc3CCN21

absorption maximum (in CC#N): 701 nm
SMILES: CC1=CC(/C=C/c2ccc(N(C)C)cc2)=[N+]2C1=C(c1ccc(I)cc1)c1c(C)cc(/C=C/c3ccc(N(C)C)cc3)n1[B-]2(F)F

SMILES: CCCCCCC(CCCCCC)N1C(=O)c2cccc3c(-c4ccc(OC)cc4)ccc(c23)C1=O
absorption maximum (in CCCCCC): 354.2 nm
absorption maximum (in CCCCCCCCCCCCCC): 356.4 nm
absorption maximum (in CCCCCCCCCCCO): 365.6 nm
absorption maximum (in CCCCO): 366.2 nm
absorption maximum (in CN(C)C=O): 368 nm
absorption maximum (in Cc1ccccc1): 364.2 nm
absorption maximum (in ClC(Cl)Cl): 364.8 nm

SMILES: O=P1(c2ccccc2)c2cc(N3c4ccccc4Sc4ccccc43)ccc2-c2ccc(N3c4ccccc4Sc4ccccc43)cc21
absorption maximum (in Cc1ccccc1): 399 nm

absorption maximum (in CS(C)=O): 398 nm
SMILES: N#Cc1c(/C=C/c2ccc(N(c3ccccc3)c3ccccc3)cc2)cc(-c2ccccc2)cc1N1CCCCC1

absorption maximum (in CC#N): 392 nm
absorption maximum (in CO): 388 nm
SMILES: CC(=O)c1ccc(/C=C/C=C/C2=NC3C(=O)NC(N)=NC3N2[C@H]2C[C@H](O)[C@@H](CO)O2)cc1 (stereo not given in full)

absorption maximum (in CCO): 600 nm
absorption maximum (in O): 580 nm
SMILES: CC[N+](CC)=c1ccc2nc3c(cc(NCCC(=O)NC(C)C(=O)OC)c4ccccc43)oc-2c1 (stereo not given)

absorption maximum (in ClCCl): 300 nm
SMILES: Cc1cc2ccccc2c2[nH]c3ccccc3c12

absorption maximum (in ClCCl): 309 nm
SMILES: COc1ccc(N2c3c(sc4ccccc34)Sc3sc4ccccc4c32)cc1

absorption maximum (in C1COCCO1): 403 nm
absorption maximum (in CC#N): 400 nm
absorption maximum (in ClCCl): 408 nm
SMILES: Cc1nc2ccc(/C=C/c3ccc(N(C)C)cc3)cc2nc1-c1ccccc1

absorption maximum (in CC#N): 307 nm
SMILES: C(=C\c1ccccc1)/c1ccccc1

absorption maximum (in C1CCOC1): 382 nm
SMILES: CCC1(CC)c2ccccc2-c2c1c1c(c3c2C(CC)(CC)c2cc(/C=C/c4cccs4)ccc2-3)C(CC)(CC)c2cc(/C=C/c3cccs3)ccc2-1

absorption maximum (in C1CCOC1): 318 nm
SMILES: C(=C1c2ccccc2CCc2ccccc21)c1ccc(-c2cc(-c3ccc(C=C4c5ccccc5CCc5ccccc54)cc3)cc(-c3ccc(C=C4c5ccccc5CCc5ccccc54)cc3)c2)cc1

absorption maximum (in CO): 451 nm
SMILES: O=C1C=C(Nc2ccc([N+](=O)[O-])cc2)C(=O)c2ccccc21

absorption maximum (in CC(C)(C)O): 350 nm
absorption maximum (in CC(C)CO): 350 nm
absorption maximum (in CC(C)O): 349 nm
absorption maximum (in CCCCO): 349 nm
absorption maximum (in CCCO): 349 nm
absorption maximum (in CCO): 349 nm
absorption maximum (in CN(C)C=O): 350 nm
absorption maximum (in CNC=O): 350 nm
absorption maximum (in CO): 348 nm
absorption maximum (in NC=O): 353 nm
absorption maximum (in O): 349 nm
SMILES: COCCOc1ccc(OCCOC)c(C=O)c1

absorption maximum (in CC#N): 321 nm
SMILES: COc1ccc(-n2nc(C#N)c(N3CCN(c4ccccn4)CC3)n2)cc1

absorption maximum (in ClCCl): 381 nm
SMILES: N#Cc1ccc(-c2cn3ccc[n+]3[n-]2)cc1

absorption maximum (in CC#N): 372 nm
SMILES: O=C(O)c1ccc(-c2nc(-c3ccccc3)c3ccccn23)cc1

absorption maximum (in CC#N): 396 nm
absorption maximum (in ClCCl): 398 nm
SMILES: COC(=O)c1cc(=O)n(C)c2cc(-c3ccc(Oc4ccccc4)cc3)sc12

SMILES: COc1cc2c(cc1-c1ccccc1)Cc1c3c(c4c(c1-2)-c1cc(OC)c(-c2ccccc2)cc1C4)C(=O)N(CCC(C)C)C3=O
absorption maximum (in C1CCOC1): 405 nm
absorption maximum (in CC#N): 406 nm
absorption maximum (in CC(C)=O): 407 nm
absorption maximum (in CCOC(C)=O): 405 nm
absorption maximum (in CS(C)=O): 413 nm
absorption maximum (in Cc1ccccc1): 405 nm
absorption maximum (in ClC(Cl)Cl): 414 nm
absorption maximum (in ClCCl): 411 nm

absorption maximum (in CC#N): 390 nm
absorption maximum (in CO): 398 nm
absorption maximum (in ClCCl): 390 nm
SMILES: COc1cc(C=O)cc(-c2[nH]c(=O)n3c2-c2ccccc2C3=O)c1O

SMILES: c1ccc(-c2nc(-c3ccccc3)nc(-c3ccc(-n4c5ccccc5c5cc(-c6ccc7oc8ccccc8c7c6)ccc54)cc3)n2)cc1
absorption maximum (in Cc1ccccc1): 370 nm

absorption maximum (in C1CCCCC1): 294 nm
SMILES: c1ccc2[nH]ncc2c1

SMILES: N#Cc1c(-c2ccc(N(c3ccccc3)c3ccccc3)cc2)c(C#N)c(-c2ccc(N(c3ccccc3)c3ccccc3)cc2)c(C#N)c1-c1ccc(N(c2ccccc2)c2ccccc2)cc1
absorption maximum (in O=P(c1ccccc1)(c1ccccc1)c1ccccc1Oc1ccccc1P(=O)(c1ccccc1)c1ccccc1): 420 nm

absorption maximum (in C1COCCO1): 536 nm
absorption maximum (in CN(C)C=O): 543 nm
absorption maximum (in CO): 538 nm
absorption maximum (in CS(C)=O): 545 nm
absorption maximum (in c1ccccc1): 544 nm
SMILES: O=C1/C(=C2\Sc3ccccc3C2=O)Sc2ccccc21

absorption maximum (in ClCCl): 352 nm
SMILES: CCCCn1c(-c2ccc(-c3nnc(-c4ccc(-c5nc(-c6ccccc6)c(-c6ccccc6)n5CCCC)cc4)o3)cc2)nc(-c2ccccc2)c1-c1ccccc1

absorption maximum (in ClCCl): 303 nm
SMILES: Cc1cc2ccccc2c2c1c1ccccc1n2-c1ncccn1

absorption maximum (in CC1CCCO1): 314 nm
SMILES: c1ccc2c(c1)-c1ccccc1C21c2ccccc2-c2ncccc21

SMILES: CC(C)(C)c1ccc2c(c1)c1cc(C(C)(C)C)ccc1n2-c1ccccc1-c1nc(-c2ccccc2-n2c3ccc(C(C)(C)C)cc3c3cc(C(C)(C)C)ccc32)nc(-c2ccccc2P(=O)(c2ccccc2)c2ccccc2)n1
absorption maximum (in C1CCOC1): 343.17 nm
absorption maximum (in CC#N): 340.7 nm
absorption maximum (in CC(C)=O): 343.17 nm
absorption maximum (in CN(C)C=O): 343.17 nm
absorption maximum (in Cc1ccccc1): 340.7 nm
absorption maximum (in ClC(Cl)Cl): 343.17 nm
absorption maximum (in ClCCl): 343.17 nm

absorption maximum (in ClCCl): 360 nm
SMILES: N#Cc1ccc(/C=C/c2ncc(-c3ccccc3)o2)cc1

absorption maximum (in ClCCl): 494 nm
SMILES: CCCCCN1c2ccccc2Sc2cc(/C=C/c3ccc(/C=C(\C#N)C(=O)O)s3)ccc21

absorption maximum (in C1CCCCC1): 334 nm
absorption maximum (in C1CCOC1): 334 nm
absorption maximum (in CC#N): 332 nm
absorption maximum (in CCOC(C)=O): 334 nm
absorption maximum (in ClCCCl): 336 nm
absorption maximum (in c1ccccc1): 334 nm
SMILES: CCCCCCCCCCCCCCCCOC(=O)c1ccc(N(c2ccccc2)c2ccccc2)cc1

absorption maximum (in CC#N): 347 nm
SMILES: COc1ccc(-c2pc3ccccc3s2)cc1 (stereo not given)

absorption maximum (in ClC(Cl)Cl): 438 nm
SMILES: CN1CCCc2cc(C3=Cc4cccc[n+]4[B-](F)(F)O3)ccc21

SMILES: CCCCCCC(CCCCCC)N1C(=O)c2cccc3c(-c4ccc(OC)c5ccccc45)ccc(c23)C1=O
absorption maximum (in CCCCCC): 322.6 nm
absorption maximum (in CCCCCCCCCCCCCC): 322.6 nm
absorption maximum (in CCCCCCCCCCCO): 323.8 nm
absorption maximum (in CCCCO): 323.6 nm
absorption maximum (in CN(C)C=O): 323.8 nm
absorption maximum (in Cc1ccccc1): 324 nm
absorption maximum (in ClC(Cl)Cl): 325 nm

absorption maximum (in O): 635 nm
SMILES: Cc1ccccc1C1=C2C=CC(=[N+](C)C)C=[C]2[Ge]([CH3])([CH3])[c]2cc(N(C)C)ccc21

absorption maximum (in CC#N): 373 nm
SMILES: COc1ccc(/C=C(\C#N)c2nc(-c3ccc(Cl)cc3)cs2)cc1

absorption maximum (in CCO): 590 nm
absorption maximum (in O): 590 nm
SMILES: CC/[NH+]=c1\cc2oc3cc(NCCNC(=O)C(NC(=O)OC(C)(C)C)C(C)C)c4ccccc4c3nc-2cc1C (stereo not given)

absorption maximum (in C1CCOC1): 388 nm
SMILES: COc1ccc(C(=Cc2ccc(/C=C(\C#N)c3ccccc3)cc2)c2ccc(OC)cc2)cc1

SMILES: O=[N+]([O-])c1ccc([N+]2=Cc3ccc4c5c(ccc4c3O[B-]2(c2ccccc2)c2ccccc2)C=[N+](c2ccc([N+](=O)[O-])cc2)[B-](c2ccccc2)(c2ccccc2)O5)cc1
absorption maximum (in Cc1ccccc1): 536 nm
absorption maximum (in ClCCl): 541 nm

absorption maximum (in O): 425 nm
SMILES: O=C(O)CCCCCn1c2ccc(Br)cc2c(=O)c2cc(Br)ccc21

absorption maximum (in ClCCl): 336 nm
SMILES: C[Si]1(C)c2ccccc2-c2ccccc21

absorption maximum (in C1CCCCC1): 400 nm
SMILES: CC(C)c1cc(C(C)C)c(B2c3cc(-n4c5ccccc5c5ccccc54)ccc3N(c3ccccc3)c3ccc(-n4c5ccccc5c5ccccc54)cc32)c(C(C)C)c1

SMILES: CCOC(=O)C(C(=O)OCC)C1=[N+]2C(=C(c3ccc(C)cc3)c3ccc(Cl)n3[B-]2(F)F)C=C1
absorption maximum (in C1CCCCC1): 514 nm
absorption maximum (in C1CCOC1): 511 nm
absorption maximum (in CCOC(C)=O): 509 nm
absorption maximum (in CO): 508 nm
absorption maximum (in Cc1ccccc1): 515 nm
absorption maximum (in ClC(Cl)Cl): 513 nm

absorption maximum (in ClCCl): 467 nm
SMILES: Cc1cc(C)n2c1C=[N+]1[N+](=C3C=NC=CN3[B-]1(F)F)[B-]2(F)F

absorption maximum (in C1COCCO1): 332 nm
absorption maximum (in CC#N): 333 nm
absorption maximum (in CO): 335 nm
absorption maximum (in ClCCl): 338 nm
SMILES: CCCCNC(=O)c1nc2c(N(C)C)nc(N(C)C)nc2n1Cc1ccccc1

absorption maximum (in CC#N): 420 nm
absorption maximum (in ClCCl): 426 nm
SMILES: COc1ccc(-c2cc3c(s2)c(C(C)=O)cc(=O)n3Cc2ccccc2)cc1

absorption maximum (in ClCCl): 436 nm
SMILES: CN(C)c1ccc(C2=CC3=C(c4ccc(C#N)cc4)[C@H]4c5ccccc5[C@]3(S2)c2ccccc24)cc1

absorption maximum (in ClC(Cl)Cl): 688 nm
absorption maximum (in ClCCl): 688 nm
SMILES: COc1ccc(C2=[N+]3C(=Nc4c(-c5ccccc5)cc(-c5ccc(OC)cc5)n4[B-]3(F)F)C(c3ccccc3)=C2)cc1

absorption maximum (in ClC(Cl)Cl): 409 nm
SMILES: CCCCCCN1C(=O)c2cccc3c(-c4ccc(-c5cccs5)s4)ccc(c23)C1=O

absorption maximum (in C1CCOC1): 447 nm
SMILES: CCCCCCCCCCCCOc1cc(C(=O)Nc2ccc(-c3ccc4c(c3)C(=O)c3cc(-c5ccc(NC(=O)c6cc(OCCCCCCCCCCCC)c(OCCCCCCCCCCCC)c(OCCCCCCCCCCCC)c6)cc5)ccc3-4)cc2)cc(OCCCCCCCCCCCC)c1OCCCCCCCCCCCC

absorption maximum (in ClCCl): 546 nm
SMILES: COc1ccc2c(c1)CCc1c(-c3ccccc3)c3n(c1-2)[B-](F)(F)[N+]1=C2C=NC=CN2[B-](F)(F)[N+]1=C3

absorption maximum (in CCO): 360 nm
SMILES: Cc1nc2c(cc3c4c(cccc42)C(=O)OC3=O)o1

absorption maximum (in ClC(Cl)Cl): 522 nm
SMILES: CC[Si](C#Cc1c2c(=O)c3ccccc3c2c(C#C[Si](CC)(CC)CC)c2c(=O)c3ccccc3c12)(CC)CC
